The record followed here is patent publication US20160251403A1, “PEPTIDE COMBINATIONS AND USES THEREOF IN TREATING DUST MITE ALLERGY” (ALK-ABELLO A/S, priority 2013, published 2016).

pIC50: −log10 of the molar value. No end group written: not given here. Where only a bound is given, the exact number is not on record here.

One may read the pIC50 as the IC50 on a negative log10 scale, so that one unit is a factor of ten. Lower therefore signals a large IC50.

Assay [1] has as its target DRB1_0301 (Homo sapiens, UniProt P01903+P01911, A100K/A102G/A103R/A169T/F55Y/I96L/K41T/L162R/M171V/P40S/Q125H/Q178H/Q39Y/R42S/S66N/T106N/T262R/W38E/Y61H). Briefly: Competitive MHC class II binding assay, DRB1_0301.
The target in assay [2] is T1, DPA10103-DPB10401 (Homo sapiens, UniProt P04440+P20036).
T1 sequence (P20036 29-260): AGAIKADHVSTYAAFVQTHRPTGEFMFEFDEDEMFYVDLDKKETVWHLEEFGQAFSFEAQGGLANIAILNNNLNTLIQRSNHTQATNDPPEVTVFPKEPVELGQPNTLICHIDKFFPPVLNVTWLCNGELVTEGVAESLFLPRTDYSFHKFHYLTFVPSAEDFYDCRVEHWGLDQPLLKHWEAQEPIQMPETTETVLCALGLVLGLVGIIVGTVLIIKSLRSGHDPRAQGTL
T1 sequence (P04440 30-258): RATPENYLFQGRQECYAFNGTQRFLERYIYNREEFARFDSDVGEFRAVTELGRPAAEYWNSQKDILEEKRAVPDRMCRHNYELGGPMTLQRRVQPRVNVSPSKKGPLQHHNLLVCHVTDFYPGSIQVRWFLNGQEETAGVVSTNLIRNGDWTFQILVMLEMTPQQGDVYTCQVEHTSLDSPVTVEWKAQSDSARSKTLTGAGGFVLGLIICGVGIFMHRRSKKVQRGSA
Nature of the assay: Competitive MHC class II binding assay, DPA10103-DPB10401.

Take LVGDNGVLASAIATHAKIRD [pep-110]: the pIC50 in assay [1] is over 6.00.

As for DNGYGYFAANIDLMMIEE [pep-010], in assay [2], the pIC50 is over 6.00.
